Test [1] deals with YAC128 mice. Put plainly: Stereology of NeuN-positive striatal neurons. The test is classed as in vivo, mouse. The note with it: YAC128, 12 months of age, 3 mg/kg/day, n=6. How it is done: (§1) YAC128 mice (Tg) and their age-matched wt littermates were implanted with an osmotic pump containing TAT control peptide or HV-3 peptide (3 mg/kg/day, each) starting from the age of 3 months. The pump was replaced once every month. By the age of 12 months, the treatments were terminated and the mouse samples were harvested for analysis.
To measure the number of NeuN-positive cells, a series of 25 μm thick coronal sections spaced 200 μm apart spanning the striatum were stained with NeuN antibody (Millipore, 1:500) and visualized by diaminobenzidine. For neuropathological analyses, brain sections were analysed stereologically. Briefly, unbiased stereological counts of NeuN-positive neurons within the striatum were performed using unbiased stereological principles and analysed with StereoInvestigator software (Microbrightfield, Williston, VT). Optical fractionator sampling was carried out on a Leica DM5000B microscope (Leica Microsystems, Bannockburn, IL) equipped with a motorized stage and Lucivid attachment ( × 40 objective). The following parameters were used in the final study: grid size, (X) 500 μm, (Y) 500 μm; Counting frame, (X) 68.2 μm, (Y) 75 μm, depth was 20 μm. […] The total volume of stratial tissue measured in each brain is calculated by StereoInvestigator and the neuronal density is presented as NeuN positive cell number per mm^3.

The subject of test [2] is YAC128 mice. Put plainly: General motility, YAC128 (24 h locomotor activity). It is filed as in vivo, mouse. The following applies: YAC128, 3 mg/kg/day from 3 months; from 6 to 12 months of age, n=15–20.
From the text: YAC128 (FVB-Tg(YAC128)53Hay/J, JAX stock number: 004938) breeders (FVB/N genetic background) were purchased from Jackson Laboratories. The YAC128 mice contain a full-length human huntingtin gene modified with a 128 CAG repeat expansion in exon 1. The mice were mated, bred and genotyped in the animal facility of Case Western Reserve University. Male mice at the ages of 2, 3, 6, 9 and 12 months were used in the study.
as §1
Gross locomotor activity was assessed in R6/2 mice and age-matched wt littermates at the ages of 13 weeks and in YAC128 mice and age-matched wt littermates at the ages of 2, 3, 6, 9, and 12 months. In an activity chamber (Omnitech Electronics, Inc), mice were placed in the center of the chamber and allowed to explore while being tracked by an automated beam system (Vertax, Omnitech Electronics Inc). Distance moved, horizontal, vertical, and rearing activities were recorded. Because R6/2 mice were sensitive to changes in environment and handling, we only conducted one-hour locomotor activity analysis for R6/2 mice and wt littermates. […]

For the next test, the system named is HD mouse striatal cells. Put plainly: Caspase-3 activity (apoptosis). It is filed as cell-based. The following applies: 24 h serum starvation, HV-3. How it is done:
mouse striatal cells were treated with thapsigargin (1μM) or tunicamycin (10μ g/ml) for 16 hours i n the presence or absence of HV -3 (3 µM). GRP78 total protein levels were determined by western blot analysis. Representative blots of three independent experiments are shown. Actin was used here as a loading control. (b) Tw e n t y -four hours of serum starvation was performed in HD mouse striatal cells.
Caspase-3 activity analysis was performed in the indicated groups. Data are mean ± SEM of three independent experiments. (c) Flag-VCP and GFP-LC3B were co-transfected into HdhQ7 striatal cells.
Total lysates were isolated after 36 hours of transfection. The GFP -LC3B levels were examined by western blot analysis. Actin was used as a loading control. Histogram: quantitation of GFP-LC3B total protein level. Data are mean ± SEM of three independent experiments.
(1 picture or pasted object on this page, not shown here)

Test [3] relates to HdhQ111 mouse striatal cells. Kind of test: Mitochondrial length and mitophagosomes by electron microscopy. The test is classed as cell-based. The following applies: 3 uM/day for 3 days, EM. From the text:
The HdhQ7 and HdhQ111 cells were fixed by 2.5% glutaraldehyde in 0.1 M cacodylate buffer. Small pieces of the striata tissue of mice were fixed by immersion in triple aldehyde-DMSO. After rinsing in 0.1 M phosphate buffer (pH 7.3), the samples were post-fixed in ferrocyanide-reduced osmium tetroxide.
The above fixed samples were rinsed by water followed by overnight soaking in acidified uranyl acetate. After rinsing in distilled water, the blocks were dehydrated in ascending concentrations of ethanol, passed through propylene oxide, and embedded in Poly/Bed resin. Thin sections were sequentially stained with acidified uranyl acetate followed by a modification of Sato's triple lead stain. These sections were examined in a FEI Tecnai Spirit (T12) transmission electron microscope with a Gatan US4000 4kx4k CCD at the Case Western Reserve University EM core facility. Mitochondria from 15 random areas in each group were imaged by an experimenter blind to the experimental groups. The length of mitochondria was measured by NIH Image J software. The number of mitophagosomes per 100 μm^2 was counted. The number of gold particles labelling VCP on mitochondria were quantitated.

In another test the test system is R6/2 mice. Kind of test: DARPP-32 protein level in R6/2 striatal extracts. It is filed as in vivo, mouse. The following applies: 3 mg kg^−1 per day, n=6. On the procedure: Male hemizygous R6/2 mice (Tg) and their age-matched wt littermates (5-week-old) were implanted with a 28-day osmotic pump (Alzet, Cupertino CA) containing TAT control peptide or HV-3 peptide, which delivered peptides to the mice at a rate of 3 mg kg^−1 per day. The first pump was implanted subcutaneously in the back of 5-week-old mice between the shoulders and replaced once, after 4 weeks.
Protein concentrations were determined by Bradford assay. Protein was resuspended in Laemmli buffer, loaded on SDS–PAGE, and transferred onto nitrocellulose membranes. Membranes were probed with the indicated antibodies, followed by visualization with ECL. Representative blots have been cropped for presentation. Images of full-size blots are presented in Supplementary Fig. 9.

“Also recorded” adds a separate entry of the source.

For the compound `CSCC[C@H](NC(=O)[C@@H](NC(=O)[C@H](CC(C)C)NC(=O)[C@@H](NC(=O)[C@H](Cc1c[nH]cn1)NC(=O)CCCCCNC(=O)[C@H](CCCNC(=N)N)NC(=O)[C@H](CCCNC(=N)N)NC(=O)[C@H](CCCNC(=N)N)NC(=O)[C@H](CCC(N)=O)NC(=O)[C@H](CCCNC(=N)N)NC(=O)[C@H](CCCNC(=N)N)NC(=O)[C@H](CCCCN)NC(=O)[C@H](CCCCN)NC(=O)[C@H](CCCNC(=N)N)NC(=O)CNC(=O)[C@@H](N)Cc1ccc(O)cc1)C(C)C)C(C)C)C(=O)N[C@@H](CS)C(=O)N[C@@H](C)C(=O)N[C@H](C(N)=O)[C@@H](C)O` [HV-3], in the test with YAC128 mice [1], the “NeuN-positive neurons in dorsolateral striatum” value is reported as “significantly increased the number of neurons positive for anti-NeuN immunostaining”. In addition, the general movement activity result with YAC128 mice [2] is listed as “improved general movement activity”. Further, the “apoptosis (caspase-3 activity)” value in the test on HD mouse striatal cells is “did not affect apoptosis”. Besides, in test [3], the mitochondrial length entry is “increased mitochondrial length” and the number of mitophagosomes result is recorded as “reduced this accumulation; also recorded: greatly reduced the accumulation of mitophagosomes”. In the test with R6/2 mice, the DARPP-32 protein level result was “significantly increased DARPP-32 levels in the two mouse models”.

Values taken from publication PMC5007466, “VCP recruitment to mitochondria causes mitophagy impairment and neurodegeneration in models of Huntington's disease” (Nature Communications, 2016).
